# Measurements reported in a melting point compilation (Tetko et al.; mined from patent text by program, amines drawn as free bases though some values may be those of a salt).
# Residues, ends and D or L forms follow the SMILES beside them. *: point of attachment. Tos = Cc1ccc(S(=O)(=O)*)cc1
row,Compound,melting point [°C]
1,COc1cc(CCCO)cc2c(O)c(C(=O)NCc3ccc(Cl)cc3)cnc12,201 to 204
2,CCN1CCN(CC(=O)NC2(c3ccc(Cl)cc3)C(=O)Nc3cc(C#N)cc(C(F)(F)F)c32)CC1 (stereo unspecified),260 to 262
3,CCOC(=O)C1=C(C)NC(N)=C(C(=O)OC(C)C)C1c1ccccc1C(F)(F)F (stereo unspecified),106
4,CC(C)(CNc1nc(Cl)ncc1Cl)NS(C)(=O)=O,143 to 145
5,CNc1ccc(OC)c([N+](=O)[O-])c1OC,57
6,ClCCCc1ccc(OCc2ccccc2)cc1,34 to 35
7,COc1ccc2[nH]c3c(c2c1)C[C@@]1(C)C(=O)N(CCN2CCN(C)CC2)C(=O)N1[C@@H]3c1cccc(O)c1 (racemic),224 to 227
8,Cc1ncoc1-c1ccc(C#N)cc1,120 to 121
9,COC(=O)C(CSC(c1ccccc1)c1ccccc1)NC(=O)C(=O)NCCSC(c1ccccc1)c1ccccc1 (stereo unspecified),131
10,CCCCCCCCCCCCCCc1onc(C(=O)NN)c1O,130
11,O=CNC1CCc2c([nH]c3ccccc23)C1 (stereo unspecified),123 to 126
12,Cc1ccc(S(=O)(=O)N2CCC[C@H]2C(=O)N[C@@H](CCCCN)C(=O)O)cc1 (Tos-Pro-Lys-OH),> 200
13,Clc1cn2cc(Cl)c(Cl)c(Cl)c2n1,232 to 233
14,CCN1CCN(Cc2ccc3c(c2)Cc2c(-c4cccs4)n[nH]c2-3)CC1,170
15,CCN1CC(=O)N(c2ccccc2C)C1=S,82 to 84
16,Cn1c(=O)c(S(C)(=O)=O)c(O)c2ccccc21,169 to 172
17,COc1c(O)c(C=O)cc2c1OCC2,71 to 72
18,O=C(c1cccs1)c1cnn2c(-c3cccc(-c4nnn(CCO)n4)c3)ccnc12,134
19,Cc1ccc(C#N)c(C)c1COC(=O)[C@H]1[C@@H](C=C(Cl)C(F)(F)F)C1(C)C (relative stereo),98
20,Cc1cc(C)c(N2c3ccccc3S(=O)(=O)c3cc(C=O)ccc32)c(C)c1,194 to 197
21,CC(C)c1ccc(C2(O)Cc3ccccc3C2=O)c(O)c1 (stereo unspecified),144 to 146
22,C=C1CC(c2cnc(-c3ccccc3Cl)s2)N(C)C1=O (stereo unspecified),96 to 105
23,c1cc(Nc2nccc(-c3ccco3)n2)cc(-n2ccnc2)c1,175 to 178
24,N#CCCNC(=O)c1cccc(-c2cccc3c2CN(Cc2cccc(C(F)(F)F)c2)C3=O)c1,191 to 192

row,Compound,melting point [°C]
1,Cn1nc(C(F)(F)F)c(CS(=O)(=O)C2=NOC(C)(C)C2)c1Oc1ccccc1Cl,67 to 70
2,CCOC(=O)c1ncn2c1CN(C)C(=S)c1ccccc1-2,164 to 165
3,CC(C)(C)NC(=O)[C@H](Cc1ccc([N+](=O)[O-])cc1)NC(=O)OC(C)(C)C,158 to 159
4,Cn1c(=O)n(Cc2ccccc2)c(=O)c2cc(C(=O)OCc3ccccc3)sc21,143 to 145
5,Cc1ccccc1-c1ccc(C(=O)N2Cc3ccc(C(=O)NCc4cccnc4)n3Cc3ccccc32)cc1C,147 to 149
6,CCCC[C@H]1C(=O)CC[C@@]2(C)CC[C@@H]3C[C@]12OC3(C)C,64 to 66
7,COC(=O)C1C=CCn2c(=O)n(CO)c(=O)n21 (stereo unspecified),123 to 125
8,CC1(C)COC(c2ccc3c(c2)C(=O)c2ccccc2CO3)=N1,122
9,Nc1cccc(Oc2ncccc2C(=O)NCc2ccccc2Cl)c1,101 to 103
10,COc1cc(-c2ccc(O)c(C3(C)CCCCC3)c2)cc(C=C2SC(N(C)C)=NC2=O)c1O,277 to 279
11,CS(=O)(=O)OCCC1(c2ccccc2)C=CCC=C1,64 to 65
12,COc1ccc2c(c1)CCC1(C)C2=CCC2(C)C(O)CCC12 (stereo unspecified),168
13,Nc1ncc(C#Cc2ccc(Cl)cc2)c(OC2CCC(=O)CC2)n1,168 to 172
14,COc1ccc(-c2cc(OC)c(OC)cc2[N+](=O)[O-])cc1OC,149 to 151
15,CC1(C)SCN(CCCCN2CCN(c3ccc4ccccc4n3)CC2)C1=O,107 to 111
16,CCOC(=O)NN=Cc1nc(C)[nH]c1C,208 to 210
17,Cn1nc(C(F)(F)F)c(CS(=O)(=O)C2=NOC(C)(C)C2)c1OC(F)F,129 to 130
18,CC(C)(C)C(=O)c1c[nH]c2ncc(N3C(=O)CCc4ccccc43)nc12,257 to 259
19,CNc1cc(Nc2ccc(OC)cc2)ncn1,174 to 182
20,CC(CNC(=O)c1ccc(N2CCC(N3C(=O)C(F)(F)c4ccccc43)CC2)nn1)C1CC1 (stereo unspecified),51 to 53
21,Nc1nc(-c2ccccc2)c(CCO)c2ncnn12,194 to 195
22,O=S(=O)(Nc1onc2c1CCC2)c1ccccc1,132
23,COc1ccc(Cl)c(NC(=S)N(CCN2C(=O)c3ccccc3C2=O)OCc2ccccc2)c1Cl,175 to 176
24,CN1CCCC1=NC(=O)Nc1ccc(OCc2ccccc2)c(Cl)c1,115 to 117

row,Compound,melting point [°C]
1,N#Cc1ccc(OCCCCOc2cccc(-c3cc4ccc(C#N)cc4o3)c2)cc1,129 to 130
2,O=C(NCN1CCCCCCCC1=O)NCN1CCCC1=O,149 to 150
3,Nc1cc(Cl)cnc1Oc1ccc(O)cc1,174
4,CCN(CC)CCOc1cccc2c1c1cccc(Cl)c1n2Cc1ccccc1,73.5 to 75
5,Cc1cc(CCCCCCCCOc2ccc(C3=NCCO3)cc2Cl)on1,63 to 64
6,CCCCc1nc2c(N)nc3cccnc3c2s1,136 to 138
7,CCCCCCCCCCc1nnnn1CC(=O)Nc1c(C(C)C)cccc1C(C)C,71 to 73
8,CNC(=O)NS(=O)(=O)c1cc2c(cc1OC)OC(C)(C)C(NC(=O)c1cc(Cl)ccc1OC)C2 (stereo unspecified),248
9,OCc1cnc(Cl)cc1Cl,73 to 77
10,Cc1ccc(C(=O)NCC(=O)N2CC2C#N)cc1 (stereo unspecified),92 to 94
11,COc1cc2c(cc1OC)[C@H]1CCCC[C@H]1N=C2c1ccc(C(C)=NNC(=O)c2cccnc2)cc1,162
12,COc1ccc2c(c1)Sc1ccc(C(C)C(N)=O)cc1C(=O)C2 (stereo unspecified),154 to 155
13,Oc1ccc(-c2cc3ccccc3cn2)cc1,218 to 219
14,O=c1ccn(CCO)c(C(O)c2ccc(Cl)cc2)c1O (stereo unspecified),184 to 186
15,CCOC(=O)c1cc(-c2ccncc2)[nH]c1N,193 to 195
16,Cc1nc2c(N)nc3ccccc3c2n1CC1(O)CCCC1,306 to 308
17,CC(=O)c1c(F)cccc1N1CCN(C(=O)OC(C)(C)C)CC1,88
18,COC(=O)C1(CN2CCC(Cc3ccc(F)cc3)CC2)CC(c2ccc3[nH]c(=O)oc3c2)=NO1 (stereo unspecified),146 to 155
19,CC(c1ccc2c(c1)N(Cc1ccc(S(C)(=O)=O)cc1)c1ccccc1S2)N(O)C(N)=O (stereo unspecified),143 to 145
20,CC(C)(C)OC(=O)N1CC[C@@H](C(=O)N[C@@H](CC(=O)OCc2ccccc2)C(=O)N[C@@H](Cc2ccccc2)C(=O)OCc2ccccc2)C1,84 to 85
21,Oc1ccc2c(c1)COc1c-2cc2ccc(O)cc2c1-c1cccc(Cl)c1,243 to 246
22,CCOC(=O)C1=C(COCc2nnn(CCNC(=NC#N)SC)n2)NC(C)=C(C(=O)OC)C1c1cccc(Cl)c1Cl (stereo unspecified),78 to 80
23,Cc1c(C(=O)Nc2cccc(C#N)c2N2CCC(N3CCOCC3)CC2)cnn1-c1ccc([N+](=O)[O-])cc1,265
